Assay results as given in patent US9926588B2, “Method for testing and screening P38 MAP kinase modifiers” (THE TRUSTEES OF THE UNIVERSITY OF PENNSYLVANIA, priority 2007, dated 2018).

Key:
[1] = system: SMN sub-cellular localization in HeLa PV cells; experiment: SMN sub-cellular localization by indirect immunofluorescence (anti-SMN 2B1); assay type: cell-based; conditions: for nuclear translocation of SMN at longer times: >24 hr (FIG. 5a); for redistribution of SMN from the cytoplasm to the nucleus (accumulation of SMN in the nucleus): short treatment (2-6 hours); for immunostaining of SMN showing nuclear accumulation (FIG. 8): emetine, puromycin, thapsigargin 10 μM, tunicamycin 10 μg/ml; for concentration dependence of the effect on nuclear localization of SMN: HeLa cells (CHX FIG. 3b; VPA 2-10 mM FIG. 5b)
Method: (§1) HeLa PV were cultured in Dulbecco's modified Eagle's medium (Invitrogen) supplemented with 10% fetal bovine serum (Invitrogen). For screening, cells were seeded onto 384-well plates or, for specific experiments, on glass coverslips the day before treatment. Compounds were added directly into the culture medium to the indicated concentration and the cells were then maintained at 37° C. in a 5% CO2 humidified atmosphere for the duration of the treatment. Dispensing of compounds and other automatic liquid handling steps were performed with a Beckman FX multi-channel system equipped with Hudson Crane robotic systems.
(§2) The following mouse monoclonal antibodies were used for indirect immunofluorescence: 2B1 (anti-SMN), 2E17 (anti-Gemin2), 12H12 (anti-Gemin3), 10G11 (anti-Gemin5), 6E2 (anti-Gemin7), 10E10 (anti-PABP), 6BG10 (anti-FXR1), Y12 (anti-Sm) and 9H10 (anti-hnRNP A1). An affinity-purified rabbit polyclonal antibody was used to detect Gemin6.
(§3) Indirect immunofluorescence on HeLa PV cells was performed as follows: HeLa cells, plated on glass coverslips, were briefly washed with PBS, fixed in 2% formaldehyde/PBS for 20 minutes at room temperature, permeabilized in 0.5% Triton X-100/PBS for 5 min at room temperature. Cells were blocked in 3% bovine serum albumin for 1 hour at room temperature. Double-label immunofluorescence experiments were performed by separate sequential incubations of each primary antibody, diluted in PBS containing 3% bovine serum albumin, followed by the specific secondary coupled to fluorescein isothiocyanate or TXRD. All incubations were at room temperature for 1 hour. Indirect epifluorescence microscopy was performed with a Nikon Eclipse E800 microscope. Digital images were collected with a Cook Sensicam high performance camera and processed with the IP laboratory software. Processing of samples for immunofluorescence microscopy on cells cultured in 384-well plates was automated and performed with the aid of microplate washers (ELX405, Bio-Tek) in a similar manner to that previously used for individual samples on glass slides. The cells were also stained with DAPI to allow definition of the nucleus in each cell. Digital images were acquired with an automated microscopy and analysis system (IN Cell Analyzer 1000, GE Healthcare). Images were analyzed using automated algorithms with parameters set to calculate mean pixel intensity in each nucleus (defined by DAPI staining and acquired in a separate channel), cytoplasm, and total cell, as well as the relevant calculated ratios of these values.
Based on the results obtained in Example 1, a library of ˜5,000 biologically active small molecules was screened on HeLa cells in 384-well plates. Each well was incubated with a different compound (at 10 μM) and the cells were processed for indirect immunofluorescence. Digital images were collected from six fields in each well and analyzed using imaging algorithms for multiple parameters including relative nuclear and cytoplasmic intensities, and number, size and signal intensity of Gems. DAPI-stained images were collected in a separate channel to define the boundary of each nucleus. Images of individual fields in wells were flagged by the software as showing a significant change in SMN sub-cellular localization. These individual wells were examined directly, and active compounds were re-tested for verification (FIG. 2).

[2] = system: Gemins 2, 3, 5, 6 and 7 localization in HeLa cells; experiment: Immunostaining of Gemins (SMN complex components) in treated cells; assay type: cell-based
Method: as §2
Indirect immunofluorescence on HeLa PV cells was performed as follows: HeLa cells, plated on glass coverslips, were briefly washed with PBS, fixed in 2% formaldehyde/PBS for 20 minutes at room temperature, permeabilized in 0.5% Triton X-100/PBS for 5 min at room temperature. Cells were blocked in 3% bovine serum albumin for 1 hour at room temperature. Double-label immunofluorescence experiments were performed by separate sequential incubations of each primary antibody, diluted in PBS containing 3% bovine serum albumin, followed by the specific secondary coupled to fluorescein isothiocyanate or TXRD. All incubations were at room temperature for 1 hour. Indirect epifluorescence microscopy was performed with a Nikon Eclipse E800 microscope. […] Images were analyzed using automated algorithms with parameters set to calculate mean pixel intensity in each nucleus (defined by DAPI staining and acquired in a separate channel), cytoplasm, and total cell, as well as the relevant calculated ratios of these values. […]

p38 MAPK = experiment: Effect of p38 MAPK activators and inhibitors on SMN complex components relocalization under protein synthesis inhibition; assay type: cell-based; conditions: for SMN accumulation in the nucleus in the presence of a protein synthesis inhibitor: with a protein synthesis inhibitor such as cycloheximide
Method: as §1, §3
Next, the effect of p38 MAPK activators and inhibitors on SMN complex components relocalization under conditions of protein synthesis inhibition was monitored.

HeLa cells = experiment: Cell viability / toxicity of treated cells; conditions: overnight treatment with 10 μM CHX
[3] = system: hnRNP A1, PABP, FXR1 and snRNPs localization in HeLa cells; experiment: Localization of other nuclear and cytoplasmic proteins (specificity); assay type: cell-based; conditions: 6 hrs of 10 μM CHX (FIG. 3c)
Method: as §2
Indirect immunofluorescence on HeLa PV cells was performed as follows: HeLa cells, plated on glass coverslips, were briefly washed with PBS, fixed in 2% formaldehyde/PBS for 20 minutes at room temperature, permeabilized in 0.5% Triton X-100/PBS for 5 min at room temperature. Cells were blocked in 3% bovine serum albumin for 1 hour at room temperature. Double-label immunofluorescence experiments were performed by separate sequential incubations of each primary antibody, diluted in PBS containing 3% bovine serum albumin, followed by the specific secondary coupled to fluorescein isothiocyanate or TXRD. All incubations were at room temperature for 1 hour. Indirect epifluorescence microscopy was performed with a Nikon Eclipse E800 microscope. […] Images were analyzed using automated algorithms with parameters set to calculate mean pixel intensity in each nucleus (defined by DAPI staining and acquired in a separate channel), cytoplasm, and total cell, as well as the relevant calculated ratios of these values.

O=C(CCCCCN1C(=O)c2cccc3cccc(c23)C1=O)NO [scriptaid]
nuclear translocation of SMN at longer times ([1]; HeLa cells): caused the same effect as protein synthesis inhibitors

CC[C@H]1CN2CCc3cc(OC)c(OC)cc3[C@@H]2C[C@@H]1C[C@H]1NCCc2cc(OC)c(OC)cc21 [emetine]
redistribution of SMN from the cytoplasm to the nucleus (accumulation of SMN in the nucleus) ([1]; HeLa cells): showed the same effect as cycloheximide | immunostaining of SMN showing nuclear accumulation (FIG. 8) ([1]; HeLa cells): nuclear accumulation

CCCC(CCC)C(=O)O [valproic acid]
localization of Gemin3 and Gemin5 ([2]; 24 hour treatment with VPA (FIG. 5c)): remain predominantly cytoplasmic | concentration dependence of the effect on nuclear localization of SMN [1]: clear concentration dependence effect | nuclear translocation of SMN at longer times ([1]; HeLa cells): caused the same effect as protein synthesis inhibitors

C/C=C(/C)C(=O)O[C@H]1C(C)=C2[C@H]([C@@H]1OC(=O)CCCCCCC)[C@@](C)(OC(C)=O)C[C@H](OC(=O)CCC)[C@@]1(O)[C@H]2OC(=O)[C@@]1(C)O [thapsigargin]
redistribution of SMN from the cytoplasm to the nucleus (accumulation of SMN in the nucleus) ([1]; HeLa cells): caused SMN to accumulate in the nucleus | immunostaining of SMN showing nuclear accumulation (FIG. 8) ([1]; HeLa cells): nuclear accumulation

CC(/C=C/C(=O)NO)=C\[C@@H](C)C(=O)c1ccc(N(C)C)cc1 [trichostatin A]
nuclear translocation of SMN at longer times ([1]; HeLa cells): caused the same effect as protein synthesis inhibitors

TNFα
localization of SMN complex component, p38 MAPK activator combined with CHX (p38 MAPK; 150 ng/ml TNFα + 10 μM CHX, HeLa cells, FIG. 6): still remained in the cytoplasm | localization of SMN complex components, p38 MAPK activator alone (p38 MAPK; 150 ng/ml TNFα, HeLa cells, FIG. 6): accumulation of SMN complex components in the cytoplasm | SMN accumulation in the nucleus in the presence of a protein synthesis inhibitor (p38 MAPK): inhibit SMN accumulation in the nucleus

Oc1ccc(-c2nc(-c3ccncc3)c(-c3ccc(F)cc3)[nH]2)cc1 [SB202190]
localization of SMN complex components, p38 MAPK inhibitor combined with Anisomycin (p38 MAPK; 10 μM SB202190 + 1 μg/ml Anisomycin, HeLa cells, FIG. 6): accumulation of SMN complex components in the nucleus | localization of SMN complex components, p38 MAPK inhibitor combined with CHX (p38 MAPK; 10 μM SB202190 + 10 μM CHX, HeLa cells, FIG. 6): accumulation of SMN complex components in the nucleus

C[C@@H]1C[C@@H]([C@H](O)CC2CC(=O)NC(=O)C2)C(=O)[C@@H](C)C1 [cycloheximide]
relocation of SMN complex components (Gemins) to the nucleus ([2]; HeLa cells, 6 hours 10 μM CHX (FIG. 4), Gemin3 and Gemin5 excepted): causes most of the components of the SMN complex to accumulate in the nucleus | cell viability (HeLa cells): no reduction in cell viability | localization of other nuclear and cytoplasmic proteins (hnRNP A1, PABP, FXR1, snRNPs) [3]: not significantly affected | treatment time after which little SMN was detected in the cytoplasm ([1]; HeLa cells): ≥ 8 h | treatment time after which the effect on SMN redistribution was evident ([1]; HeLa cells): 2 h | concentration dependence of the effect on nuclear localization of SMN [1]: concentration-dependent | concentrations exhibiting a clear effect on redistribution of SMN from the cytoplasm to the nucleus ([1]; HeLa cells, FIG. 3a,b): 0.1 to 40 µM | redistribution of SMN from the cytoplasm to the nucleus (accumulation of SMN in the nucleus) ([1]; HeLa cells): most striking accumulation of SMN in the nucleus | reversibility of SMN nuclear accumulation ([1]; cells washed and placed in fresh medium devoid of cycloheximide): reversible

tunicamycin
redistribution of SMN from the cytoplasm to the nucleus (accumulation of SMN in the nucleus) ([1]; HeLa cells): caused SMN to accumulate in the nucleus | immunostaining of SMN showing nuclear accumulation (FIG. 8) ([1]; HeLa cells): nuclear accumulation

COc1ccc(C[C@H]2NC[C@H](O)[C@H]2OC(C)=O)cc1 [Anisomycin]
localization of SMN complex components, Anisomycin alone (p38 MAPK; treated cell (FIG. 6: 1 μg/ml Anisomycin)): accumulate in the cytoplasm | SMN accumulation in the nucleus in the presence of a protein synthesis inhibitor (p38 MAPK): inhibit SMN accumulation in the nucleus

CCOC(=O)CN1C(=O)CC(C[C@@H](O)[C@@H]2C[C@@H](C)C[C@H](C)C2=O)CC1=O [cycloheximide-N-ethylethanoate]
redistribution of SMN from the cytoplasm to the nucleus (accumulation of SMN in the nucleus) ([1]; HeLa cells): did not show any effect

COc1ccc(C[C@H](N)C(=O)N[C@H]2[C@@H](O)[C@H](n3cnc4c(N(C)C)ncnc43)O[C@@H]2CO)cc1 [puromycin]
redistribution of SMN from the cytoplasm to the nucleus (accumulation of SMN in the nucleus) ([1]; HeLa cells): showed the same effect as cycloheximide | immunostaining of SMN showing nuclear accumulation (FIG. 8) ([1]; HeLa cells): nuclear accumulation
